Experimental data from patent publication US11939327B2, “Heterocyclic compounds” (Takeda Pharmaceutical Company Limited, priority 2017, dated 2024).

The compounds below were run against T1, human GluR1 flip (Homo sapiens, UniProt P42261) (assay: AMPA receptor function-enhancing activity using calcium influx as index (CHO-K1/GluR1 flip/stargazin-expressing cells)). Conditions: CHO-K1, test compound 30 μM with 3 mM glutamic acid, 100% = 3 mM glutamic acid + 300 μM cyclothiazide, 0% = 3 mM glutamic acid alone, read-out: hGluR1 flip/30 μM (%).
T1 construct: expressed in transfected cells; host or cells: CHO-K1
T1 sequence (P42261 19-906 isoform P42261-2 limits assumed): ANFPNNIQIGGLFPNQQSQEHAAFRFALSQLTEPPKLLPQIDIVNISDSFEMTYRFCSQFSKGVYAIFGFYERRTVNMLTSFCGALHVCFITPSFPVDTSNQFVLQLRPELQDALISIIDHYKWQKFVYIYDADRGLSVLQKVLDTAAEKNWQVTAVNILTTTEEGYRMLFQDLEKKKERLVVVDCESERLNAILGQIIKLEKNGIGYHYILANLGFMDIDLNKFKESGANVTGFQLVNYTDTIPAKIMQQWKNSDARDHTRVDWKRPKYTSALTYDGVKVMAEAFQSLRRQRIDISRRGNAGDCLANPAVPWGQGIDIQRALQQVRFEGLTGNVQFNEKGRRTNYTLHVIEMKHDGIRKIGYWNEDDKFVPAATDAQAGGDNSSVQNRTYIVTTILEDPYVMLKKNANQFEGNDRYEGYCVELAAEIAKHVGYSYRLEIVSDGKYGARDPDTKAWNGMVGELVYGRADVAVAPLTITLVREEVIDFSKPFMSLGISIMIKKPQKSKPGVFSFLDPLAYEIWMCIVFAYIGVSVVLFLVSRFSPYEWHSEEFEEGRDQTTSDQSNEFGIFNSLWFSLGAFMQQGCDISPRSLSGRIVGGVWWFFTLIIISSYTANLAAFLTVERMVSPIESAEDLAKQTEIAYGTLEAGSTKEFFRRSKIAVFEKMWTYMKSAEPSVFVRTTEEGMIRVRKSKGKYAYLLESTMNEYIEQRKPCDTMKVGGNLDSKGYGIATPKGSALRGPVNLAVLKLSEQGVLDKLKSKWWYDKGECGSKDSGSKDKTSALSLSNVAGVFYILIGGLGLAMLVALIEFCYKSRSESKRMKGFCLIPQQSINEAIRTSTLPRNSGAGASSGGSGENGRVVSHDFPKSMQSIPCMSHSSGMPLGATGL
T1 sequence (Q9Y698 whole entry partner): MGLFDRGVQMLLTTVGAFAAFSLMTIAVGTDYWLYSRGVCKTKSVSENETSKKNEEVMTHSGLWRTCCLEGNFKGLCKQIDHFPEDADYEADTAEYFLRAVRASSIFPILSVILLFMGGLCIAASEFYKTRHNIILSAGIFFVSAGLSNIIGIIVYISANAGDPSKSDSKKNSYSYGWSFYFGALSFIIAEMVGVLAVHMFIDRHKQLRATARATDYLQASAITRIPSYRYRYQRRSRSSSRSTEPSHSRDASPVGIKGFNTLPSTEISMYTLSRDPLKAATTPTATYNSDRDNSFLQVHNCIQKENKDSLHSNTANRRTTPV
Type: cell-based
From the text: Experimental Example 1 Measurement method of AMPA receptor function-enhancing activity of compound using calcium influx as index
(1) Construction of Expression Gene
Human GluR1 flip cDNA was amplified by PCR method using forward primer […] (SEQ ID NO: 1) and reverse primer […] (SEQ ID NO: 2) artificially synthesized using human brain-derived cDNA (BD Bioscience) as a template. The amplified product was digested with restriction enzymes EcoRI, NotI (TAKARA SHUZO CO. LTD.) and incorporated into the same site of pcDNA3.1(+) (Invitrogen) to construct pcDNA3.1(+)/human GluR1 flip gene. Human stargazin cDNA was amplified by PCR method using forward primer […] (SEQ ID NO: 3) and reverse primer […] (SEQ ID NO: 4) artificially synthesized using human hippocampus cDNA as a template. The amplified product was digested with restriction enzymes XhoI, BamHI (TAKARA SHUZO CO. LTD.) and incorporated into the same site of pcDNA3.1(−) (Invitrogen) to construct pcDNA3.1 Zeo(−)/human stargazing gene.
(2) Construction of GluR1 Flip/Stargazin Expressing Cell
CHO-K1 cells passaged in a culture medium (Ham's F12 medium (Invitrogen) added with 10% inactivated fetal bovine serum (Morgate) and penicillin, streptomycin (Invitrogen)) were detached using 0.05% trypsin and 0.53 mM EDTA (Invitrogen) diluted with D-PBS(−). The detached cells were suspended in a culture medium, and recovered by centrifugation at 1,000 rpm. The recovered cells were re-suspended in D-PBS(−) and added into 0.4 cm electroporation cuvette (BioRad). pcDNA3.1(+)/human GluR1 flip gene (5 μg) and pcDNA3.1 Zeo(−)/human stargazin gene (15 μg) were added, and introduced into CHO-K1 cells under the conditions of 950 μFd, […] and using Gene Pulser II (BioRad). The introduced cells were cultured overnight in a culture medium. The next day, using a selection medium (culture medium added with zeocin (Invitrogen) at 250 μg/mL), the cells were plated in a 96 well plate at 250 cells/well. The clones showing drug resistance were selected, and GluR1 flip/stargazin expression clones were selected by an assay method shown below using calcium influx as an index.
(3) Measurement Method of AMPA Receptor Function-Enhancing Activity of Compound, Using Calcium Influx as an Index
CHO-K1/GluR1 flip/stargazin-expressing cells were plated on a 384 well black bottom transparent plate, and cultured for 2 days in a CO2 incubator (SANYO ELECTRIC Co. Ltd.) at 37° C. The medium of the cell plate was removed. A calcium indicator (Calcium5 Assay Kit, Molecular Devices) was diluted with an assay buffer (HBSS (Thermo Fisher Scientific), 0.1% BSA (Merck Millipoer) and 10 mM HEPES (Thermo Fisher Scientific)), and 1.25 mM probenecid (Dojindo Laboratories) was added thereto. The mixture prepared above was added at 30 μL/well (100 μL/well in case of 96 wells) to the well, and the well was left standing in 37° C., CO2 incubator for 1 hr. The cell plate was set in CellLux (PerkinElmer), a mixture (15 μL) (50 μL/well in case of 96 wells) of […] glutamic acid (final concentration 3 mM) diluted with an assay buffer and a test compound (test compound concentration 30 μM) was added thereto, and variation in the amount of fluorescence was measured for 3 min. The variation of fluorescence level of a well added with final concentration 3 mM of glutamic acid and 300 μM cyclothiazide (TOCRIS) was defined as 100%, the variation of fluorescence level of a well added with final concentration 3 mM of glutamic acid alone was defined as 0%, and the activity of the compound was calculated by the following formula. activity (%)=(X−C)/(T−C)×100 • T: variation of fluorescence level of well added with final concentration 3 mM of glutamic acid and 300 μM cyclothiazide • C: variation of fluorescence level of well added with final concentration 3 mM of glutamic acid alone • X: variation of fluorescence level of well added with test compound
Compound `O=C(c1ccc(-c2nccc3c2nc(C(F)(F)F)n3CC(F)F)cc1F)N1CCOCC(F)(F)C1` [Example 34, (4-(1-(2,2-difluoroethyl)-2-(trifluoromethyl)-1H-imidazo[4,5-c]pyridin-4-yl)-2-fluorophenyl)(6,6-difluoro-1,4-oxazepan-4-yl)methanone] has an activation at 30 µM of 94.2%. `O=C(c1ccc(-c2cccc3c2nc(C(F)(F)F)n3CC(F)F)cc1)N1CCOCC(F)(F)C1` [Example 29, (4-(1-(2,2-difluoroethyl)-2-(trifluoromethyl)-1H-benzimidazol-4-yl)phenyl)(6,6-difluoro-1,4-oxazepan-4-yl)methanone] gave an activation at 30 µM of 93%. Work on `O=C(c1ccc(-c2cccc3c2nc(C(F)(F)F)n3CC(F)F)cc1)N1CCOC(C(F)F)C1` (stereo not shown) [Example 16, (4-(1-(2,2-difluoroethyl)-2-(trifluoromethyl)-1H-benzimidazol-4-yl)phenyl)(2-(difluoromethyl)morpholin-4-yl)methanone] yielded an activation at 30 µM of 108%. With `C[C@H]1CN(C(=O)c2ccc(-c3nccc4c3nc(C(F)(F)F)n4CC(F)F)cc2F)CCO1` [Example 17, (4-(1-(2,2-difluoroethyl)-2-(trifluoromethyl)-1H-imidazo[4,5-c]pyridin-4-yl)-2-fluorophenyl)((2S)-2-methylmorpholin-4-yl)methanone] the activation at 30 µM was 95.1%. For `O=C(c1ccc(-c2c(F)ccc3c2nc(C(F)(F)F)n3CC(F)F)cc1)N1CCOCC1` [Example 36, (4-(1-(2,2-difluoroethyl)-5-fluoro-2-(trifluoromethyl)-1H-benzimidazol-4-yl)phenyl)(morpholin-4-yl)methanone], the activation at 30 µM was 93.5%. Work on `C[C@H]1CN(C(=O)c2ccc(-c3cccc4c3nc(C(F)(F)F)n4CC(F)F)cc2)CCO1` [Example 13, (4-(1-(2,2-difluoroethyl)-2-(trifluoromethyl)-1H-benzimidazol-4-yl)phenyl)((2S)-2-methylmorpholin-4-yl)methanone] yielded an activation at 30 µM of 112%. For `O=C(c1ccc(-c2nccc3c2nc(C(F)(F)F)n3CC(F)F)cc1F)N1CC(F)(F)C1` [Example 26, (3,3-difluoroazetidin-1-yl)(4-(1-(2,2-difluoroethyl)-2-(trifluoromethyl)-1H-imidazo[4,5-c]pyridin-4-yl)-2-fluorophenyl)methanone], the activation at 30 µM was 79.3%. For `O=C(c1ccc(-c2cccc3c2nc(C(F)(F)F)n3CC(F)F)cn1)N1CCOCC(F)(F)C1` [Example 39, (5-(1-(2,2-difluoroethyl)-2-(trifluoromethyl)-1H-benzimidazol-4-yl)pyridin-2-yl)(6,6-difluoro-1,4-oxazepan-4-yl)methanone], the activation at 30 µM was 110%. `O=C(c1ccc(-c2cccc3c2nc(C(F)(F)F)n3CC(F)F)c(F)c1)N1CCOCC1` [Example 51, (4-(1-(2,2-difluoroethyl)-2-(trifluoromethyl)-1H-benzimidazol-4-yl)-3-fluorophenyl)(morpholin-4-yl)methanone] gave an activation at 30 µM of 113%. `CCn1c(C(F)(F)F)nc2c(-c3ccc(C(=O)N4CCO[C@@H](C)C4)c(F)c3)nccc21` [Example 9, (4-(1-ethyl-2-(trifluoromethyl)-1H-imidazo[4,5-c]pyridin-4-yl)-2-fluorophenyl)((2S)-2-methylmorpholin-4-yl)methanone] gave an activation at 30 µM of 110%. Work on `CCn1c(C(F)(F)F)nc2c(-c3ccc(C(=O)N4CCOCC4)cc3)nccc21` [Example 4, (4-(1-ethyl-2-(trifluoromethyl)-1H-imidazo[4,5-c]pyridin-4-yl)phenyl)(morpholin-4-yl)methanone] yielded an activation at 30 µM of 68.4%. Compound `O=C(c1ccc(-c2cccc3c2nc(C(F)(F)F)n3CC(F)F)cc1)N1CCOCC1` [Example 7, (4-(1-(2,2-difluoroethyl)-2-(trifluoromethyl)-1H-benzimidazol-4-yl)phenyl)(morpholin-4-yl)methanone] has an activation at 30 µM of 83.3%. In the case of `CN(CCC#N)C(=O)c1ccc(-c2cccc3c2nc(C(F)(F)F)n3CC(F)F)cc1` [Example 21, N-(2-cyanoethyl)-4-(1-(2,2-difluoroethyl)-2-(trifluoromethyl)-1H-benzimidazol-4-yl)-N-methylbenzamide], the activation at 30 µM is reported as 93.7%. For `O=C(c1ccc(-c2nccc3c2nc(C(F)(F)F)n3CC(F)F)c(F)c1)N1CCOCC1` [Example 53, (4-(1-(2,2-difluoroethyl)-2-(trifluoromethyl)-1H-imidazo[4,5-c]pyridin-4-yl)-3-fluorophenyl)(morpholin-4-yl)methanone], the activation at 30 µM was 69%. `O=C(c1ccc(-c2nccc3c2nc(C(F)(F)F)n3CC(F)F)cc1)N1CCOCC(F)(F)C1` [Example 50, (4-(1-(2,2-difluoroethyl)-2-(trifluoromethyl)-1H-imidazo[4,5-c]pyridin-4-yl)phenyl)(6,6-difluoro-1,4-oxazepan-4-yl)methanone] showed an activation at 30 µM of 122%. Compound `CCn1c(C(F)(F)F)nc2c(-c3ccc(C(=O)N4CCOCC4)cc3)cccc21` [Example 2, (4-(1-ethyl-2-(trifluoromethyl)-1H-benzimidazol-4-yl)phenyl)(morpholin-4-yl)methanone] has an activation at 30 µM of 79.3%. `CCn1c(C(F)(F)F)nc2c(-c3ccc(C(=O)N4CCOCC4)c(F)c3)nccc21` [Example 8, (4-(1-ethyl-2-(trifluoromethyl)-1H-imidazo[4,5-c]pyridin-4-yl)-2-fluorophenyl)(morpholin-4-yl)methanone] was tested, and the activation at 30 µM was 109%. Compound `O=C(c1ccc(-c2cccc3c2nc(C(F)(F)F)n3CC(F)F)cc1)N1CCCOCC1` [Example 14, (4-(1-(2,2-difluoroethyl)-2-(trifluoromethyl)-1H-benzimidazol-4-yl)phenyl)(1,4-oxazepan-4-yl)methanone] has an activation at 30 µM of 92.6%. Compound `CO[C@@H]1CCN(C(=O)c2ccc(-c3nccc4c3nc(C(F)(F)F)n4CC(F)F)cc2F)C1` [Example 37, (4-(1-(2,2-difluoroethyl)-2-(trifluoromethyl)-1H-imidazo[4,5-c]pyridin-4-yl)-2-fluorophenyl)((3R)-3-methoxypyrrolidin-1-yl)methanone] has an activation at 30 µM of 89.8%. `O=C(c1ccc(-c2nccc3c2nc(C(F)(F)F)n3CC(F)F)cc1F)N1CCCOCC1` [Example 15, (4-(1-(2,2-difluoroethyl)-2-(trifluoromethyl)-1H-imidazo[4,5-c]pyridin-4-yl)-2-fluorophenyl)(1,4-oxazepan-4-yl)methanone] showed an activation at 30 µM of 72%. In the case of `O=C(c1ccc(-c2nccc3c2nc(C(F)(F)F)n3CC(F)F)cc1F)N1CCOCC2(CC2)C1` [Example 48, (4-(1-(2,2-difluoroethyl)-2-(trifluoromethyl)-1H-imidazo[4,5-c]pyridin-4-yl)-2-fluorophenyl)(5-oxa-8-azaspiro[2.6]non-8-yl)methanone], the activation at 30 µM is reported as 80.2%. Compound `O=C(c1ccc(-c2nccc3c2nc(C(F)(F)F)n3CC(F)F)cc1F)N1CCC1` [Example 24, azetidin-1-yl(4-(1-(2,2-difluoroethyl)-2-(trifluoromethyl)-1H-imidazo[4,5-c]pyridin-4-yl)-2-fluorophenyl)methanone] has an activation at 30 µM of 78.1%.
